This note sets out measurements from patent publication US10875837B2, “Inhibitors of the fibroblast growth factor receptor” (BLUEPRINT MEDICINES CORPORATION, priority 2013, dated 2020).

The test system of data set [1] is pMAPK (Thr202/Tyr204) in MDA-MB453 or DMS 114 cells. Description: Detection of pMAPK (Thr202/Tyr204) using Alpha ELISA (pERK alphaLISA). It is filed as cell-based. The following applies: 1 hr incubation with compound; cell line not given (MDA-MB453 or DMS 114). The procedure:
Detection of pMAPK (Thr202/Tyr204) Using Alpha ELISA
MDA-MB453 or DMS 114 cells were plated in 96-well cell culture plates at a density of 1×10^5 cells or 3×10^4 cells, respectively. Cells were allowed to attach, and growth media was replaced with serum free media. Compounds were added at the indicated concentrations. Following 1 hr incubation in the presence of compound, cells were collected. For the DMS 114 cells, 100 ng/mL FGF2 was added for 10 min prior to cell collection. Cell lysates were prepared and processed according to manufacturer instruction (AlphaScreen® SureFire™ Phospho-ERK 1/2 Kit (Perkin Elmer).
On the technique in general: In an ELISA, binding on a coated surface is turned into a signal by an enzyme label.

Data set [2] relates to Hep3B xenograft tumors. Kind of data set: Hep3B liver cancer cell subcutaneous xenograft model in nude mice. It is filed as in vivo. The procedure:
The effects of Compound 27 on tumor growth inhibition in Hep3B liver cancer cell subcutaneous xenograft model with different dosages were studied.
Female nude mice (Mus musculus) age 6 to 8 weeks were used. Tumor cell culture and inoculation: Hep3B cells were cultured with EMEM medium (Invitrogen, USA) supplemented with 10% FBS (Gibco, Australia). The cells were harvested in 90% confluence, and the viability was no less than 90%. Mice were implanted subcutaneously (s.c.) with 200 μL of 10×10^6 Hep3B cells in 50% Matrigel in the right flank at the beginning of the study.
Animal grouping and dosing schedule: Ten days after cell implantation, when tumors reached an average volume of 284 mm^3, […] were selected based on tumor volume and randomly assigned to 5 treatment groups (n=9). The day of randomization was denoted as day 0 and the treatment was started from then on.
Tumor volume and body weight measurements: Tumor size was measured twice per week in two dimensions using a caliper, and the volume was expressed in mm^3 using the formula: V=0.5 a× b^2 where a and b were the long and short diameters of the tumor, respectively. Body weight was measured at least twice weekly.

Data set [3] deals with T1, wild type FGFR-4 (Homo sapiens, UniProt P22455).
T1 construct: purchased Carna Biosciences, Inc
T1 sequence (P22455 22-802): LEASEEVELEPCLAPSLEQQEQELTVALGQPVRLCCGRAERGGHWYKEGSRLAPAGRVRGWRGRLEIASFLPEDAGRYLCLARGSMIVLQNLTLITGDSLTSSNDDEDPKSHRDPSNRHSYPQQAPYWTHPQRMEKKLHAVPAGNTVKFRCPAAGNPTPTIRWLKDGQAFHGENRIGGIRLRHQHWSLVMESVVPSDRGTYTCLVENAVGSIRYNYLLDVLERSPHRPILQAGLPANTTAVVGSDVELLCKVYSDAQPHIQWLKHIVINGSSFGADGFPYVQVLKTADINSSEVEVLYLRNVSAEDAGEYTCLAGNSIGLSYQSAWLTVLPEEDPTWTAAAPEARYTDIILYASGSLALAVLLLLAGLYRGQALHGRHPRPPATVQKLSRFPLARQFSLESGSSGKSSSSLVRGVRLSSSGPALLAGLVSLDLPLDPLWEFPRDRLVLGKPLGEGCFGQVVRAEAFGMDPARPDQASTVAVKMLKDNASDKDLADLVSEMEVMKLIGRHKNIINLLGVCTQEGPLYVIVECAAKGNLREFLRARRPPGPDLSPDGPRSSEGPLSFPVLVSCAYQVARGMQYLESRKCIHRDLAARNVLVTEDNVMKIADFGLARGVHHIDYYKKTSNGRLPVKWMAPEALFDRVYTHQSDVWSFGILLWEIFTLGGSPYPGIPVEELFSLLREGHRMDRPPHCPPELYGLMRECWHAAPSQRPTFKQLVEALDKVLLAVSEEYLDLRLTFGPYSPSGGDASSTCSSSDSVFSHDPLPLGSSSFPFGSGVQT
Description: FGFR-4 wild type assay at Km (Caliper electrophoretic mobility shift). It is filed as biochemical. As to conditions: wild type FGFR-4, 400 uM ATP, 25 C, 90 minutes; read-out: INH-FGFR4. The procedure: Biochemical Activity Assessment In order to assess the activity of chemical compounds against the relevant kinase of interest, the Caliper LifeSciences electrophoretic mobility shift technology platform is utilized. Fluorescently labeled substrate peptide is incubated in the presence dosed levels of compounds, a set concentration of kinase and of ATP, so that a reflective proportion of the peptide is phosphorylated. At the end of the reaction, the mix of phosphorylated (product) and non-phosphorylated (substrate) peptides are passed through the microfluidic system of the Caliper LabChip® EZ Reader II, under an applied potential difference. The presence of the phosphate group on the product peptide provides a difference in mass and charge between the product peptide and the substrate peptide, resulting in a separation of the substrate and product pools in the sample. As the pools pass the LEDS within the instrument, these pools are detected and resolved as separate peaks. The ratio between these peaks therefore reflects the activity of the chemical matter at that concentration in that well, under those conditions.
FGFR-4 wild type assay at Km: In each well of a 384-well plate, 0.5 ng/ul of wild type FGFR-4 (Carna Biosciences, Inc.) was incubated in a total of 12.5 ul of buffer (100 mM HEPES pH 7.5, 0.015% Brij 35, 10 mM MgCl2, 1 mM DTT) with 1 uM CSKtide (5-FAM-KKKKEEIYFFFG-NH2) and 400 uM ATP at 25 C for 90 minutes in the presence or absence of a dosed concentration series of compound (1% DMSO final concentration). The reaction was stopped by the addition of 70 ul of Stop buffer (100 mM HEPES pH 7.5, 0.015% Brij 35, 35 mM EDTA and 0.2% of Coating Reagent 3 (Caliper Lifesciences)). The plate was then read on a Caliper LabChip® EZ Reader II (protocol settings: −1.9 psi, upstream voltage −700, downstream voltage −3000, post sample sip 35 s).

As for `C=CC(=O)N[C@H]1COC[C@H]1Nc1ncc2cc(-c3c(Cl)c(OC)cc(OC)c3Cl)ccc2n1` [Compound 27, N-[(3R,4S)-4-{[6-(2,6-dichloro-3,5-dimethoxyphenyl)quinazolin-2-yl]amino}oxolan-3-yl]prop-2-enamide], the IC50 in data set [1] and in data set [3] was less than 10 nM each time. Besides, the tumor response result in data set [2] (100 mg/kg PO BID, Hep3B xenograft, nude mice) was “regressed and almost disappeared”. Besides, the “tumor volume compared with vehicle group” value in data set [2] (30 and 100 mg/kg PO BID, Hep3B xenograft, nude mice) is listed as “Statistically significant reduction of tumor volumes”. Moreover, the body weight change entry in data set [2] (Hep3B-bearing nude mice, only the 100 mg/kg PO BID group did not lose bodyweight) is on record as “could alleviate body weight loss”. The “tumor volume compared with vehicle group during the entire study” value in data set [2] (all treated groups, 10 mg/kg to 100 mg/kg, Hep3B xenograft, nude mice) is “significant reduction of tumor volume”. In addition, in data set [2] (current dosages and dosing schedule (10 to 100 mg/kg PO BID), nude mice), the tolerability result is listed as “well tolerated”. Also, the “dose dependence of tumor inhibition efficiency” value in data set [2] (increasing dosage from 10 mg/kg to 100 mg/kg) was “enhanced the tumor inhibition efficiency”.
For the molecule `C=CC(=O)N[C@H]1CN(S(=O)(=O)CC)C[C@H]1Nc1ncc2cc(-c3c(Cl)c(OC)cc(OC)c3Cl)ccc2n1` [Compound 89], the results for the IC50 in data set [1] and in data set [3] were 10 to 100 nM and less than 10 nM, respectively.
The corresponding values for `C=CC(=O)N[C@H]1CN(C(=O)CN2CCCC2)C[C@H]1Nc1ncc2cc(-c3c(Cl)c(OC)cc(OC)c3Cl)ccc2n1` [Compound 91] are 10 to 100 nM and less than 10 nM.
